# Experimental data: US20050192262A1, “Treatment of tumours” (priority 2001, published 2005)
# Read-outs that look alike come from different tables or passages of the source.
# Key:
# β-catenin = experiment: Western blotting of Dunning AT-1 rat prostate tumours; format: in vivo; conditions: Animals II; exposure 80 hours in all arms
# Description: (§1) The animal experiment described above was repeated.
# Thawed rat tumours from both experiments above were homogenized in ice cold lysis-buffer. (160 mM NaCl, 10 mM HEPES, 2 mM CaCl2, 5% SDS, 0.5% Triton X-100, 100 μg/ml phenyl-metylsulfonyl fluoride, 1 μg/ml leupeptin and 2 μg/ml aprotinin), placed on ice for 15 minutes and following clarification centrifuged for 10 minutes at 13,000 g. Protein content of homogenates were determined by Lowry assay.
# Protein in lysates (90 μg) were separated by electrophoresis using 8% SDS-PAGE and separated proteins were transferred onto a nitrocellulose membrane (Amersham) in trans-blot electrophoretic transfer cell (Bio-Rad Laboratories).
# After washing in TTBS the blots were reincubated with horseradish peroxidase conjugated secondary antibody (anti-goat antibodies 2020, Santa Cruz) diluted 1:4000 in TTBS containing 3% (w/v) non-fat, dried milk for one hour. Blots were developed using an enhanced chemiluminescence system (ECL, Amersham) and exposed to Hyperfilm ECL (Amersham). Optical density was measured densitometrically.
# The blots were striped and rehybridized with antibodies against β-catenin (C-18, sc. 1496) and COX-2 (C-20, sc 1745) antibodies.
# In the second animal experiment tumours were investigated for expression of β-catenin, COX-2 and cyclin D1 (A-12, sc. 8396).
# cyclin D1 = experiment: as above; format: in vivo; conditions: Animals II; exposure 80 hours in all arms
# Description: as §1
# (§2) Group 1 received a single dose of 10 mg 17α-AED sc. near tumour.
# (§3) Group 2 received a single dose of 80 mg 17β-AED in the same way.
# (§4) Group 3 received a single dose of 25 mg 17α OH-pregnenolone in the same way.
# (§5) Group 4 received a single dose of 7.5 mg 5-androstene-3β,7β,17α-triol.
# Protein content of homogenates were determined by Lowry assay.
# VEGF = experiment: Immunostaining of tumour sections against VEGF; format: in vivo, rat; conditions: Animals II
# Description: Working dilution 1:100. As negative control antibody a mouse IgG, clone DAK-GO1, kappa, ×931, Dako, was used with a working dilution of 1:50.
# as §1, §2, §3, §4, §5
# PPARγ [1] = target: T1, PPARγ (Mus musculus, UniProt P37238); experiment: Ligand-induced coactivator interaction assay (GST-PPARγ / SRC-1); format: biochemical; conditions: for PPARγ-ligand activity, steroid + liver cytosol + PAPS / PPARγ-ligand activity, native steroid + liver cytosol: second experiment; for PPARγ-ligand activity, steroid + liver cytosol + PAPS: active liver cytosol, sulfate formed in situ; for PPARγ-ligand activity, native steroid + liver cytosol: without PAPS
# T1 construct: made in house; host or cells: E. coli strain Y 1090 (GST-PPARγ); TNT Coupled Reticulocyte Lysate System, Promega (SRC-1)
# T1 sequence (P37238 whole entry): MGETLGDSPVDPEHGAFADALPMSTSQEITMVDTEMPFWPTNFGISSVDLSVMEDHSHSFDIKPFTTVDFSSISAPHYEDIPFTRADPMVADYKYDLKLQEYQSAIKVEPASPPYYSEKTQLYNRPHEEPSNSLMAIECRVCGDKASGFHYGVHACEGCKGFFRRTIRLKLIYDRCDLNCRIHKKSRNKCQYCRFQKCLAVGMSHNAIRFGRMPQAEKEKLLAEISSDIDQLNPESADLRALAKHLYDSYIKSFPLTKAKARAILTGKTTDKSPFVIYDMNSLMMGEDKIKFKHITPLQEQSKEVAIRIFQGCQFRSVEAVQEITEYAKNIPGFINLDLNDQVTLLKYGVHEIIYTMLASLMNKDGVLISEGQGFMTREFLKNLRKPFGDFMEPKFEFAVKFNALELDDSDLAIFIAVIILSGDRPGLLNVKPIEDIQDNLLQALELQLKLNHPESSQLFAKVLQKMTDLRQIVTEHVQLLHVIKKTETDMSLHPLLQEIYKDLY
# T1 sequence (Q15788 whole entry partner): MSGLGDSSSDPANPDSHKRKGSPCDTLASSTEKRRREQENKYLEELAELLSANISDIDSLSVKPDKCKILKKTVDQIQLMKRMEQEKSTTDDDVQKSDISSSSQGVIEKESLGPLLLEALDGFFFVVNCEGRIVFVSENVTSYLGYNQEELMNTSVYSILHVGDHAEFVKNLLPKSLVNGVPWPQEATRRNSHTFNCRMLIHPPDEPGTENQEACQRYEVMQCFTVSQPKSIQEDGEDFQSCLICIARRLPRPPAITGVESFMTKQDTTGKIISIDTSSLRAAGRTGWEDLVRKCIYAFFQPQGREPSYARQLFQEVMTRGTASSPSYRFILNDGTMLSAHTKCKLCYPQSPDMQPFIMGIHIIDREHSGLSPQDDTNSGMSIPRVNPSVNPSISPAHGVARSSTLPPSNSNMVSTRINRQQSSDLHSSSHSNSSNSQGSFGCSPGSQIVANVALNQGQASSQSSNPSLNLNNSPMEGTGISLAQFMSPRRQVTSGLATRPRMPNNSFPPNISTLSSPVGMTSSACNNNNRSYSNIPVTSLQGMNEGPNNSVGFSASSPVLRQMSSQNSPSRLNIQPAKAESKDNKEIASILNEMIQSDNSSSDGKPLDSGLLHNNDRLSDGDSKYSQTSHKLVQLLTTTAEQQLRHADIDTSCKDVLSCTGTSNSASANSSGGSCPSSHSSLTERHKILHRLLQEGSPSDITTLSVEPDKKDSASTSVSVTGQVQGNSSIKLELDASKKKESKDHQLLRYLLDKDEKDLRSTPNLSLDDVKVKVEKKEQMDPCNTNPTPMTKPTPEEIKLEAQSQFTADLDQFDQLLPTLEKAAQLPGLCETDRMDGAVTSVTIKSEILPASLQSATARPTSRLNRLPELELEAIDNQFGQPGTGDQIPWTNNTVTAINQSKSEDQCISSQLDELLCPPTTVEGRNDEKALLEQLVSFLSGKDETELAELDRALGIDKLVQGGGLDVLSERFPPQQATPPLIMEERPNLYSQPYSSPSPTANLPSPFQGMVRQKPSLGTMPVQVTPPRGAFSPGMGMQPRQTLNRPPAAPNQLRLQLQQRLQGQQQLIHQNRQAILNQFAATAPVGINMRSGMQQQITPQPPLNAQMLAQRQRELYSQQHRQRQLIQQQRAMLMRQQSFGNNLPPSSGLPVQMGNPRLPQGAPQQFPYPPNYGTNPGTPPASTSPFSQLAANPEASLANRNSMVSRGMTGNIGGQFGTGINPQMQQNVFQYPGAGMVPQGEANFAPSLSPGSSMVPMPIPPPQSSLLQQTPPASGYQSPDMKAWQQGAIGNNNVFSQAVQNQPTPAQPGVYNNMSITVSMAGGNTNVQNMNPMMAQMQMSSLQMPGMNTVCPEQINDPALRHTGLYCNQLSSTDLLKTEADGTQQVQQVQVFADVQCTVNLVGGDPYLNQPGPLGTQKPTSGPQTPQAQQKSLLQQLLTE
# Description: ApcDNA3-SRC-1 construct was used as template to prepare (^35S-methionine)-SRC-1 by in vitro transcription and translation using the TNT® Coupled Reticulocyte Lysate System (Promega).
# Ligand-induced interactions between GST-PPARγ and SRC-1: To generate GST-PPARγ fusion protein, mouse PPARγcDNA was inserted into the NcoI-HindIII sites of pGEX-KG, and protein was then expressed in E. coli, strain Y 1090. The bacteria were lysed by sonication in TEDG buffer (50 mM Tris (pH 7.4), 1.5 mM EDTA, 10% glycerol, 0.4 M NaCl, 0.1 mM DTT) containing the following protease inhibitors: 0.5 mM PMSF, 1 mM benzamidine, 10 μg/ml leupeptin, 10 μg/ml antipain and […] aprotinin. The lysates were centrifuged at 100,000×g for 60 min in a SW 41 rotor using a Beckman L8-70 M ultracentrifuge. The fusion protein was immobilized on GSH Sepharose beads (Pharmacia) and then incubated with potential ligands in (FIG. 5) 10 mM Tris (pH7.4), 0.12 M KCl, 8% glycerol, 4 mM DTT, and 0.5% CHAPS (buffer AA) for 30 min at room temperature. Thereafter, (^35S methionine) SRC-1 (ca 0.1 μCi) was added, and the beads were incubated for another hour at 4° C. and then washed extensively with buffer A. SDS sample buffer was added to the beads, and the samples boiled prior to separation on 7.5% SDS-PAGE. Radioactivity was detected by autoradiography.
# α- and β-AED were investigated in above assay for PPARγ ligand activity in 10 and 100 μM solutions in ethanol 10%, in distilled water. 10 μL aliquots of α-AED-solution or β-AED-solution were also added to a preparation of a male rat liver cytosolic preparation prepared as follows:
# A homogenate of a rat liver, a known source of steroid sulphotransferase activity, was prepared using a food processor. The liver homogenate was protected from serine-proteases by the addition of 2 mmol of PMSF, 1 mmol of EDTA and 10 mmol Tris-HCl buffered to a pH of 7.40. The homogenate was prepared at 4° C. and then centrifuged at 15000 g for 10 minutes, followed by centrifugation at 100000 g for an hour at 4° C. The supernatant was divided into test tubes containing one of the following steroids: 17β-AED or 17α-AED in 5 μM concentration together with 100 μL of liver cytosol. One test tube served as positive control and contained SCR-1.
# In a second experiment the following steroids were tested for activity: 17α-AED, 17OH-pregnenolone and 5-androstene-3β,7β,17α-triol with and without 10 μL of […] (PAPS), Sigma Chemicals, corresponding to 0.1 mg of PAPS. One test tube served as a positive control and contained SRC-1 Instead of steroid. One test tube contained liver cytosol where the steroid sulphotransferase was inactivated by heating to 45° C. for 30 minutes. Tubes were stirred at 20° C. for 1 hour and the contents were investigated in the receptor-coactivator assay for ligand activity (FIG. 5).
# 17α-AED was treated in the method described by Arnostova, Libuse M.; Pouzar, Vladimir; Drasar, Pavel. Inst. Org. Chem. Biochem., Czech. Acad. Sci., Prague, Czech. Synth. Commun. (1990), 20(10), 1521-9, where acetate is used as protection group and pyridine —SO3 complex as the sulfating agent. Deprotection with an excess of 0.8M NaOH in MeOH-water provides the desired hydroxy sulfate, which is investigated, for PPARγ-activity in the ligand-activated-coactivator receptor assay described above.
# DU-145 = experiment: Facscan viability (chlorofluoresceindiacetate / propidiumiodide); format: cell-based, human; conditions: 200 nM 17α-AED + rat liver cytosol + PAPS, Herceptin 1:150, 72 hours
# Description: (§6) Effects of HER-2 and 17α-AED-3β-sulfate in breast and prostate cancer cell lines. Cell cultures of prostate cancer cell lines PC-3 and DU-145 as well as mammary cancer cell lines MCF-7 and SKBR-3 were grown in flasks as previously described in the presence or absence of a 200 nM 17α-AED. Cultures containing 17α-AED were further subdivided and these cultures were grown in the presence or absence of Herceptin®, her-2 antibodies, using a stem solution of 1 mg/ml which was further diluted, making the final concentration 1:150 In the cell suspension.
# (§7) Representations of each cell line containing no steroid were also treated with herceptin as above. For each cell line and variation of treatment 3 different culture flasks were used.
# (§8) Further, a mixture of 100 μL rat liver cytosol and 20 μL of 3′-phosphoadenosine-5′-phosphosulphate (PAPS), corresponding to approximately 0.16 mg of PAPS was shared between and added to cultures containing 17α-AED.
# (§9) Finally, for each cell line three samples were kept as untreated controls.
# (§10) To estimate the number of viable cells a solution of chlorofluoresceindiacetate was added to the cultures on the last day of culture. This chemical penetrates freely into cells, but is metabolized in the living cell into a form with green fluorescence unable to leave the cell. As counterstaining, to detect dead cells, propidiumiodide, giving a red fluorescence, was added 15 minutes before analyzing the samples in a Facscan. Time for 10000 cells to pass the detector in the Facscan was estimated in order to detect a possible growth inhibitory effect, not resulting in an increased number of dead cells.
# MCF-7 = experiment: as above; format: cell-based, human; conditions: 200 nM 17α-AED + rat liver cytosol + PAPS, Herceptin 1:150, 72 hours
# Description: as §6, §7, §8, §9, §10
# PC-3 = experiment: as above; format: cell-based, human; conditions: 200 nM 17α-AED + rat liver cytosol + PAPS, Herceptin 1:150, 72 hours
# Description: as §6, §7, §8, §9, §10
# SKBR-3 = experiment: as above; format: cell-based, human; conditions: 200 nM 17α-AED + rat liver cytosol + PAPS, Herceptin 1:150, 72 hours
# Description: as §6, §7, §8, §9, §10
# PPARγ [2] = experiment: Western blotting cell lines; format: cell-based, human
# Excerpt: (§11) Protein blotting was repeated for DU-145 and PC-3 cell lines, which were also investigated for expression of PPARδ through antibody (H-74, sc 7197).
# PPARδ = experiment: Western blotting cell lines; format: cell-based, human; conditions: PC-3 and DU-145
# Excerpt: as §11
# [3] = test system: Dunning R 3327, AT-1, rat prostatic tumour; experiment: Tumour growth after s.c. injection near tumour; format: in vivo; conditions: Animals II; single s.c. injection in the proximity of the tumour
# Description: as §1, §2, §3, §4, §5
# A fifth group served as tumour bearing controls.
SMILES,expression of β-catenin (β-catenin),expression of cyclin D1 (cyclin D1),staining for VEGF (VEGF),"PPARγ-ligand activity, steroid + liver cytosol + PAPS (PPARγ [1])","PPARγ-ligand activity, native steroid + liver cytosol (PPARγ [1])",dead (DU-145) [%],viable (DU-145) [%],dead (MCF-7) [%],viable (MCF-7) [%],dead (PC-3) [%],viable (PC-3) [%],dead (SKBR-3) [%],viable (SKBR-3) [%],PPARγ-ligand activity of the 3β-sulfate (PPARγ [1]),PPARγ-ligand activity of the 3β-sulfate (PPARγ [1]; listed as 5-androstene-17α-ol-3β-sulfate),"expression of PPARγ (PPARγ [2]; DU-145, 100 nM, repeated experiment)","PPARγ expression (PPARγ [2]; PC-3 cells, 100 nM, repeated experiment)","expression of PPARγ (PPARγ [2]; both cell lines (PC-3, DU-145))",expression of PPARδ (PPARδ),tumour volumes [3] [%]
"C[C@]12CC[C@H]3[C@@H]([C@@H](O)C=C4C[C@@H](O)CC[C@@]43C)[C@@H]1CC[C@H]2O [5-androstene-3β,7β,17α-triol, 3β,7β,17α-trihydroxy-androst-5-en]",down-regulation,down-regulation,"almost complete disappearance of detectable VEGF In tumours in 2 cases, a modest downregulation in 1 and unchanged appearance in 1",insignificant responses,insignificant responses,–,–,–,–,–,–,–,–,–,–,–,–,–,–,–
"C[C@]12CC[C@H]3[C@@H](CC=C4C[C@@H](OS(=O)(=O)O)CC[C@@]43C)[C@@H]1CC[C@H]2O [17α-AED-3βsulfate, 5-androstene-17α-ol-3β-sulfate]",–,–,–,–,–,18,70,15,75,12,81,21,66,shows PPARγ-activity,only sample demonstrating PPARγ-ligand activity,Expression of PPARγ was observed,increased,increased the expression of PPARγ significantly,no effect,–
"CC(=O)[C@@]1(O)CC[C@H]2[C@@H]3CC=C4C[C@@H](O)CC[C@]4(C)[C@H]3CC[C@@]21C [17αOH-pregnenolone, 17-hydroxy-pregnenolone (17α-OH)]","same pattern, but even more marked","same pattern, but even more marked",almost complete disappearance of staining for VEGF,insignificant responses,insignificant responses,–,–,–,–,–,–,–,–,–,–,–,–,–,–,~−50
